This note sets out measurements from US20060281726A1, “Piperidine derivatives for the treatment of chemokine or h1 mediated disease state” (priority 2003, published 2006).

Molecules are shown by their SMILES.

The target in this assay is T1, human H1 receptor (Homo sapiens, UniProt P35367).
T1 construct: purchased Euroscreen SA, Brussels, Belgium ES-390-M; host or cells: CHO-K1
T1 sequence (P35367 whole entry): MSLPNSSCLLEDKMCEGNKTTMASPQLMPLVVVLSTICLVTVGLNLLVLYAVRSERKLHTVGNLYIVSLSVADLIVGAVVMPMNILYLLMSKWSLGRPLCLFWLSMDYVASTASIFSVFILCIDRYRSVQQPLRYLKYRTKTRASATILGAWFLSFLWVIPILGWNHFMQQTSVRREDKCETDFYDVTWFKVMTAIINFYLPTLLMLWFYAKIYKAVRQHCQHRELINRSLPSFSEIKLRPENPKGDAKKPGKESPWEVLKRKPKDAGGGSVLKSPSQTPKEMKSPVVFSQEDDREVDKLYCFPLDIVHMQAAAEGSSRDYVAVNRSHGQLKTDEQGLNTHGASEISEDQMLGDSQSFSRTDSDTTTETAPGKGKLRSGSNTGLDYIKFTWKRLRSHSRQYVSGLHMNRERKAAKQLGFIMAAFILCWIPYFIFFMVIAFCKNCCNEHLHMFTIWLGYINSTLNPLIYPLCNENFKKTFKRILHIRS
The assay is described as follows: Histamine H1 receptor binding, competition displacement of [3H]-pyrilamine. The following applies: displacement of 1 nM [3H]-pyrilamine; membranes from recombinant CHO-K1 cells expressing the human H1 receptor; 1 hour at room temperature; read-out: H1 pKi/[1328_S] (converted). On the procedure:
Histamine H1 receptor binding activity of compounds of the invention was assessed by competition displacement of 1 nM [3H]-pyrilamine (Amersham, Bucks, Product code TRK 608, specific activity 30 Ci/mmol) to 2 μg membranes prepared from recombinant CHO-K1 cells expressing the human H1 receptor (Euroscreen SA, Brussels, Belgium, product code ES-390-M) in assay buffer (50 mM Tris pH 7.4 containing 2 mM MgCl2, 250 mM sucrose and 100 mM NaCl) for 1 hour at room temperature.
Take `O=C(O)c1ccccc1C(=O)N1CCC(CN2CCC(Oc3ccc(Cl)c(Cl)c3)CC2)CC1` [Example 1, 2-[[4-[[4-(3,4-dichlorophenoxy)-1-piperidinyl]methyl]-1-piperidinyl]carbonyl]-benzoic acid]: the Ki was 316 nM.

Consider `Cc1c(Cl)ccc(OC2CCN(CC3CCN(C(=O)c4ccccc4C(=O)O)CC3)CC2)c1Cl` [Example 2, 2-[[4-[[4-(2,4-Dichloro-3-methylphenoxy)-1-piperidinyl]methyl]-1-piperidinyl]carbonyl]-benzoic acid], for which the Ki is 63.1 nM.

On to `Cc1c(OC2CCN(CC3CCN(C(=O)c4ccccc4C(=O)O)CC3)CC2)ccc(Cl)c1Cl` [Example 3, 2-[[4-[[4-(3,4-Dichloro-2-methylphenoxy)-1-piperidinyl]methyl]-1-piperidinyl]carbonyl]-benzoic acid], for which the Ki was 200 nM.

With `O=C(O)Cc1ccccc1C(=O)N1CCC(CN2CCC(Oc3ccc(Cl)c(Cl)c3)CC2)CC1` [Example 12, 2-[[4-[[4-(3,4-dichlorophenoxy)-1-piperidinyl]methyl]-1-piperidinyl]carbonyl]-benzeneacetic acid], the Ki is 251 nM.

As for `CS(=O)(=O)c1cc(C(=O)N2CCC(CN3CCC(Oc4ccc(Cl)c(Cl)c4)CC3)CC2)ccc1O` [Example 19, 4-[[4-(3,4-dichlorophenoxy)-1-piperidinyl]methyl]-1-[4-hydroxy-3-(methylsulfonyl)benzoyl]-piperidine], the Ki is 31.6 nM.
